In patent publication US20230265069A1, “Small Molecule Inhibitors That Block the Budding of Enveloped Viruses” (priority 2020, published 2023):
pEC50: −log10 of the molar value.

Assays:
HSV-1 = HSV-1 release from infected Vero cells, plaque assay
HSV-2 [1] = test: Transmission electron microscopy of HSV-2 infected Vero cells, particle counts; settings: 105 tenatoprazole, 24 h, HSV-2, 80 cells
Description: Vero cells grown on glass cover slips were infected with HSV-2 at MOI of 0.1 pfu/cell for 2 h and then treated for 24 h with 105 μM tenatoprazole or vehicle control.
Transmission electron Microscopy. Vero cells on glass cover slips were infected with HSV-2 at a MOI of 0.1 for two hours. Then 105 μM of tenatoprazole or 18 μM Ilaprazole was added and cells incubated for 24 hours. Tissue samples were fixed in 0.1 M sodium cacodylate buffer pH 7.3 containing 2% paraformaldehyde and 2.5% glutaraldehyde and post-fixed with 2% osmium tetroxide 427 in unbuffered aqueous solution. The samples were rinsed with distilled water, en bloc stained with 3% uranyl acetate, rinsed with distilled water, dehydrated in ascending grades of ethanol, transitioned with propylene oxide, embedded in the resin mixture of Embed 812 kit and cured in a 60° C. oven. Samples were sectioned on a Leica Ultracut UC6 ultramicrotome. 1 μm thick sections were collected and stained with Toluidine Blue O and 70 nm sections were collected on 200 mesh copper grids; thin sections were stained with uranyl acetate and Reynolds lead citrate. Transmission electron microscopy (TEM) was performed on a FEI Tecnai Spirit G2.

[2] = biological target: T1, Tsg101-UEV (Tsg101 amino acids 1-145) (Homo sapiens, UniProt Q99816); test: Fluorescence thermal shift (FTS) assay, binding to Tsg101-UEV
T1 sequence (Q99816 1-145): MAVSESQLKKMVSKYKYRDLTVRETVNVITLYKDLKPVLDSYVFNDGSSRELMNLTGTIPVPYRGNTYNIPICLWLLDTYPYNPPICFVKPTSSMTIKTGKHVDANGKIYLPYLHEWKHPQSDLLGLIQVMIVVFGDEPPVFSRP
Description: The fluorescence-based thermal shift assay is based on the observation that a protein unfolds upon heating, exposing the hydrophobic residues within its tertiary structure. The unfolding temperature (Tm) is determined by the protein's primary sequence and solution environment. The FTS assay uses a fluorescent dye sensitive to a hydrophobic environment to probe protein stability and its modulation by small molecule ligands. The dye has a low fluorescence quantum yield when in a polar environment. Once in contact with the hydrophobic core normally buried within a folded protein that has become exposed during the thermal unfolding (melting) process, the quantum yield of the dye increases, thus providing a reporting signal. Furthermore, a protein's stability can be affected by ligand binding, resulting in an increase or decrease in its melting temperature. FTS assay uses the Tm shift upon binding of a ligand to identify hit compounds for drug discovery.
We screened chemical compounds using a fluorescence thermal shift (FTS) assay (27, 28) to identify small molecules that bind directly to a truncated form of Tsg101 (amino acids 1-145) which contains the Ubiquitin E2 variant (UEV) ubiquitin-binding domain (FIG. 1A, 1B, 1C). […] This truncated Tsg101, called Tsg101-UEV, was used because full-length Tsg101 has significant solubility issues in aqueous solution. Tsg101 is an adaptor protein and thus lacks a readily deployable functional assay, making FTS a tractable approach to identify interacting compounds. FTS monitors protein thermal denaturation using SYPRO® Orange, a dye which fluoresces when bound to hydrophobic surfaces, which allows monitoring of the changes in hydrophobic surface exposure during protein denaturation (27). Since ligand binding affects protein thermal stability, it can be detected through modulation of protein thermal denaturation (melting) as a shift in melting temperature (Tm). Tsg101-UEV has a well-defined melting curve suitable for FTS. We used the FTS assay to identify compounds that bind to Tsg101-UEV.
Fluorescence thermal shift (FTS) screening to identify small molecule binding to Tsg101-UEV. FTS using thermal shift elicited by the small molecule binding effect to protein stability. FTS monitors protein thermal denaturation using environment-sensitive dye Sypro® Orange which fluoresces when bound to hydrophobic surfaces, taking advantage of the changes in hydrophobic surface exposure in protein denaturation. Discovery of small molecule binding to target protein utilizes the observation that ligand binding affects protein thermal stability, and therefore can be detected through a shift in the protein's thermal denaturation (melting) temperature (Tm). We have employed FTS to reveal changes in thermodynamic properties of Tsg101 elicited by its interaction with a small molecule. […] A fluorescence dye Sypro® Orange (Invitrogen) was used for assay detection. The dye is excited at 473 nm and has a fluorescence emission at 610 nm. The dye binds to hydrophobic regions of a protein that are normally buried in a native protein structure. […] The Tsg101 fragment was premixed at a concentration of 2 μM with a 5× concentration of Sypro® Orange in HEPES buffer (100 mM HEPES, 150 mM NaCl, pH 7.5). Then 10 μl of the protein-dye mix was added to an assay plate and 10 to 50 nanoliters of compound, equal to 10 to 50 μM, were added with an acoustic transfer robot Echo550 (Labcyte, CA).

ENO1 = ENO1 (Homo sapiens, UniProt P06733); test: FTS assay on unrelated protein ENO1; settings: specificity control
Description: (§1) Fluorescence thermal shift (FTS) screening to identify small molecule binding to Tsg101-UEV. FTS using thermal shift elicited by the small molecule binding effect to protein stability. FTS monitors protein thermal denaturation using environment-sensitive dye Sypro® Orange which fluoresces when bound to hydrophobic surfaces, taking advantage of the changes in hydrophobic surface exposure in protein denaturation. Discovery of small molecule binding to target protein utilizes the observation that ligand binding affects protein thermal stability, and therefore can be detected through a shift in the protein's thermal denaturation (melting) temperature (Tm). We have employed FTS to reveal changes in thermodynamic properties of Tsg101 elicited by its interaction with a small molecule. The recombinant Tsg101 fragment (amino acids 1-145), prepared as described above in Materials and Methods (but without label) has a thermal unfolding profile suitable for using FTS as a primary screen assay in HTS. A fluorescence dye Sypro® Orange (Invitrogen) was used for assay detection. The dye is excited at 473 nm and has a fluorescence emission at 610 nm. The dye binds to hydrophobic regions of a protein that are normally buried in a native protein structure. […] Fluorescence was detected on a real-time PCR machine CFX384 (Bio-Rad Laboratories).

MEK4 = biological target: T2, MEK4 (Homo sapiens, UniProt P45985); test: FTS assay on unrelated protein MEK4; settings: specificity control
T2 sequence (P45985 1-399): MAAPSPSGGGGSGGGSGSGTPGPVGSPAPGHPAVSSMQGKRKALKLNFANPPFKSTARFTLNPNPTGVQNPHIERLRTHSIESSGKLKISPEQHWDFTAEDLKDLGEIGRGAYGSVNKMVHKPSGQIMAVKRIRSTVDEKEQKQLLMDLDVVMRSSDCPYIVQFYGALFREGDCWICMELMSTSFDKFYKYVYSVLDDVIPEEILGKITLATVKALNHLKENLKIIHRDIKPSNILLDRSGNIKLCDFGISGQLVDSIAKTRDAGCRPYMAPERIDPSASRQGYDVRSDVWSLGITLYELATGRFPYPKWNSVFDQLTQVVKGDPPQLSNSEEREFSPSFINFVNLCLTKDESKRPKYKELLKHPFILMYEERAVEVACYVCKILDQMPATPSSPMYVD
Description: as §1

HIV-1 = settings: 293T cells in culture; cited from earlier work
HSV-2 [3] = test: HSV-2 release from infected Vero cells, plaque assay; settings: for Titer of HSV-2 Media 48 h / Titer of HSV-2 Media, 24 h / Total Titer HSV-2 Media + Cell Lysate, 24 h: Vero cells
DHPH = test: FTS assay on unrelated protein DHPH; settings: specificity control
Description: as §1

Vero cells = test: Vero cell viability, 96 AQueous One Solution cell proliferation assay; type: cell-based
Description: Drug potency and cell toxicity. […] Cell toxicity experiments were repeated twice.

[4] = Tenatoprazole 52 μM, Vero cells
[5] = Tenatoprazole 79 μM, Vero cells
[6] = Tenatoprazole 105 μM, Vero cells
[7] = Tenatoprazole 131 μM, Vero cells
[8] = Tenatoprazole 157 μM, Vero cells

ENO1, sequence (P06733 whole entry): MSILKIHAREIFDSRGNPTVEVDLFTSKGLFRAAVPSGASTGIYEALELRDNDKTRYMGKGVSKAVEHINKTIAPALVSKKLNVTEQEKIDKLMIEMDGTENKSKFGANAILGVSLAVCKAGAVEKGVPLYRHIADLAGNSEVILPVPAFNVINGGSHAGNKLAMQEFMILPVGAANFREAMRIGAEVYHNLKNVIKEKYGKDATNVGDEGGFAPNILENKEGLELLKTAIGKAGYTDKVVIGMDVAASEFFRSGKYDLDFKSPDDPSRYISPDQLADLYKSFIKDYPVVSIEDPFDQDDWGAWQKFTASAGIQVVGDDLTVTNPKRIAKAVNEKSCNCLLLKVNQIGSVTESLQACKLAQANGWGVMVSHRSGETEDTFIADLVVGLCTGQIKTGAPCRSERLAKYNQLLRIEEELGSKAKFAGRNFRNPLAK

In the case of Tenatoprazole, the “Titer of HSV-1 Media, 48 H” value (HSV-1; [4]) was 1.4E+07, the “Titer of HSV-1 Media, 24 h” value (HSV-1; [4]) was 2.90E+05 and the “Titer of HSV-1 Media, 48 H” value (HSV-1; [5]) was 8.0E+06. For the same substance, the “Titer of HSV-1 Media, 24 h” value (HSV-1; [5]) was 1.30E+05, the “Titer of HSV-1 Media, 48 H” value (HSV-1; [6]) was 5.3E+05 and the “Titer of HSV-1 Media, 24 h” value (HSV-1; [6]) was 5.40E+04. For the same substance, the “Titer of HSV-1 Media, 48 H” value (HSV-1; [7]) was 3.5E+04, the “Titer of HSV-1 Media, 24 h” value (HSV-1; [7]) was 2.40E+03 and the “Titer of HSV-1 Media, 48 H” value (HSV-1; [8]) was 1.0E+02. The “Titer of HSV-1 Media, 24 h” value (HSV-1; [8]) was 1.30E+02, the “Drop of HSV-1 in released infectious virus” value (HSV-1; Vero cells, 24 hours after infection) was 3 log and the “Duration of inhibition of virus release” value (HSV-1; against either virus (HSV-1, HSV-2), data not shown) was “began to fall off after 48 h”. The pEC50 (HSV-1; read-out: EC50, inhibition of HSV-1 release, Vero cells, 24 h, range stated jointly for HSV-1 and HSV-2) was 4.10 to 4.32, the “Average number of virus particles in the nucleus” value (HSV-2 [1]) was 31 particles and the “Virus particles in the cytoplasm” value (HSV-2 [1]) was “did not detect virus particles”. For the same substance, the “Thermal shift (Tm shift) of Tsg101-UEV caused by compound” value ([2]; FTS dose response, result in words) was “dose-dependent shift in the Tm”, the “Tm shift of Tsg101 in the FTS assay on addition of DTT” value ([2]; with reducing agent DTT) was “abolishes the Tm shift” and the “Tm shift of ENO1” value (ENO1) was “did not observe a Tm shift”. For the same substance, the “Tm shift of MEK4” value (MEK4) was “did not observe a Tm shift”, the “Inhibition of release of infectious HIV-1 from 293T cells (earlier report)” value (HIV-1) was “quantitatively inhibit” and the “Titer of HSV-2 Media 48 h” value (HSV-2 [3]; Tenatoprazole 52 μM) was 1.30E+06. The “Titer of HSV-2 Media, 24 h” value (HSV-2 [3]; Tenatoprazole 52 μM) was 6.50E+04, the “Total Titer HSV-2 Media + Cell Lysate, 24 h” value (HSV-2 [3]; Tenatoprazole 52 μM) was 4.00E+06 and the “Titer of HSV-2 Media 48 h” value (HSV-2 [3]; Tenatoprazole 60 μM) was 5.60E+04. The “Titer of HSV-2 Media, 24 h” value (HSV-2 [3]; Tenatoprazole 60 μM) was 1.00E+03, the “Total Titer HSV-2 Media + Cell Lysate, 24 h” value (HSV-2 [3]; Tenatoprazole 60 μM) was 2.30E+04 and the “Titer of HSV-2 Media 48 h” value (HSV-2 [3]; Tenatoprazole 79 μM) was 4.80E+03. The “Titer of HSV-2 Media, 24 h” value (HSV-2 [3]; Tenatoprazole 79 μM) was 2.50E+02, the “Total Titer HSV-2 Media + Cell Lysate, 24 h” value (HSV-2 [3]; Tenatoprazole 79 μM) was 1.50E+03 and the “Titer of HSV-2 Media 48 h” value (HSV-2 [3]; Tenatoprazole 105 μM) was 1.80E+02. The “Titer of HSV-2 Media, 24 h” value (HSV-2 [3]; Tenatoprazole 105 μM) was 0.00E+00, the “Total Titer HSV-2 Media + Cell Lysate, 24 h” value (HSV-2 [3]; Tenatoprazole 105 μM) was 6.00E+02 and the “Titer of HSV-2 Media, 24 h” value (HSV-2 [3]; Tenatoprazole 131 μM) was 0.00E+00. The “Total Titer HSV-2 Media + Cell Lysate, 24 h” value (HSV-2 [3]; Tenatoprazole 131 μM) was 3.00E+02, the EC50 (HSV-2 [3]; read-out: EC50 (μM) Inhibition of HSV-2 Budding at 24 h, HSV-2 infected Vero cells, virus released into media, plaque assay) was 84 µM and the “Tm shift of DHPH” value (DHPH) was “did not observe a Tm shift”. For the same substance, the “Cell toxicity at concentrations that block virus release” value (Vero cells; 24 h, result in words) was “nontoxic”, the “Viability of OD 490 nm, 24 h” value (Vero cells; Tenatoprazole 52 μM) was 1.724 and the “Viability of OD 490 nm, 24 h” value (Vero cells; Tenatoprazole 60 μM) was 1.759. For the same substance, the “Viability of OD 490 nm, 24 h” value (Vero cells; Tenatoprazole 79 μM) was 1.742, the “Viability of OD 490 nm, 24 h” value (Vero cells; Tenatoprazole 105 μM) was 1.777 and the “Viability of OD 490 nm, 24 h” value (Vero cells; Tenatoprazole 131 μM) was 1.714. The “Viability of OD 490 nm, 24 h” value (Vero cells; Tenatoprazole 200 μM) was 0.872.
